The source of these data is ChEMBL document CHEMBL1201862, “PubChem BioAssay data set” (2004).

What is called GI50 is the concentration that inhibits growth by half.

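Results reflect a 48-hour exposure of cells in 96-well plates to compound at five concentrations. The concentration for 50% growth inhibition is given as GI50.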 Activity calls are given as the source filed them. Rule as the data show it: active = GI50 up to about 1.1 µM and inactive = higher.

Test systems include SR; HCT-15; PC-3; UO-31; OVCAR-8; SNB-19; HOP-62; MDA-MB-231; HCT-116; NCI/ADR-RES; MDA-MB-435; NCI-H23; NCI-H522; NCI-H226; K562; SNB-75; T47D; BT-549; RXF 393; CCRF-CEM.
Common to all, as to experiment: DTP human tumour cell line panel, 48 h

`CCOC(=O)C(Cc1cn(C(C)=O)c2ccccc12)P(=O)(OCC)OCC` (centres undefined): the GI50 was > 100 µM (inactive) with SR; greater than 100 µM with HCT-15; 60.8 µM (inactive) with PC-3; > 100 µM (inactive) with UO-31; > 100 µM (inactive) in the experiment on OVCAR-8; > 100 µM (inactive) in the experiment with SNB-19. Further, the GI50 was > 100 µM (inactive) in the experiment on HOP-62; > 100 µM (inactive) in the experiment with MDA-MB-231; > 100 µM (inactive) in the experiment with HCT-116; > 100 µM (inactive) in the experiment on NCI/ADR-RES; > 10 µM (inactive) in the experiment on MDA-MB-435; > 100 µM (inactive) in the experiment on NCI-H23. For the same compound, the GI50 in the experiment on NCI-H522, in the experiment with NCI-H226, with K562, with SNB-75 and in the experiment with T47D was > 100 µM (inactive) in each case.
On to `Clc1ccc(/N=c2\oc3ccccc3cc2-c2nc3ccccc3[nH]2)c(Cl)c1`, for which the GI50 with SR is > 100 µM (inactive); in the experiment on HCT-15 it was greater than 100 µM; in the experiment with PC-3, > 100 µM (inactive); with UO-31 it was > 100 µM (inactive); in the experiment on OVCAR-8 it was > 100 µM (inactive); with SNB-19 it was > 100 µM (inactive). In addition, the GI50 in the experiment on HOP-62 was 24.3 µM (inactive); in the experiment on HCT-116 it was > 100 µM (inactive); with NCI/ADR-RES, > 100 µM (inactive); in the experiment on MDA-MB-435, > 100 µM (inactive); with BT-549 it was > 100 µM (inactive); in the experiment on NCI-H23 it was 78.5 µM (inactive). Also, the GI50 with NCI-H522 is 78.5 µM (inactive); with RXF 393, 18.6 µM (inactive); with K562, > 100 µM (inactive); with CCRF-CEM, > 100 µM (inactive); in the experiment on T47D, > 100 µM (inactive).
